These results are taken from a melting point compilation (Tetko et al.; mined from patent text by program, amines drawn as free bases though some values may be those of a salt).

`Nc1nc2ccccc2c2c1nc(-c1ccccc1)n2CCCCNC(=O)c1ccc2ccccc2n1` had a melting point of 81.1 to 83.9 °C.

As to `CCc1c(Sc2ccccc2)n(CC2CC=CC2)c(=O)[nH]c1=O`, the melting point is 112 to 113 °C.

Molecule `Cc1ccc(S(=O)(=O)N2CCCC2c2ccc(F)c(F)c2)cc1` (racemic) returned a melting point of 127 °C.

The molecule `NC(=O)[C@@H]1[C@H](Nc2c(Br)cnc3[nH]c(-c4ccccc4-n4cccn4)nc23)[C@H]2C=C[C@@H]1C2` returned a melting point of 120 °C.

In turn, `CSc1ccc(C(=O)C(=C(N)C(F)(F)F)c2ccc(F)cc2)cc1` registered a melting point of 122 to 124 °C.

`NS(=O)(=O)c1ccc(-c2cnn(CC3=CCCCC3)c(=O)c2-c2ccc(F)cc2)cc1`: the melting point lay in the range of 192 to 193 °C.

Turning to `OC1COC(c2ccc(Cl)cc2)OC1` (centres undefined), the melting point fell in the range of 95 to 100 °C.

As for `Cc1cnc(-c2ccc(O)cc2)o1`, the melting point lay in the range of 177 to 178 °C.

The molecule `CCONC(CC)=C1C(=O)OC(CC)=C(Br)C1=O` gave a melting point of 76.5 to 77.5 °C.

For `Cc1cc(C)c2sc(N)nc2c1`, the melting point was 142 to 144 °C.

On to `COc1ccc(-n2cccc2-c2ccc(S(N)(=O)=O)cc2)cc1`, for which the melting point was 112 to 114 °C.

With `Cc1cc(C(=O)Nc2ccccc2)c(C)o1`, the melting point fell in the range of 92 to 93 °C.

Consider `Cc1cnc(Nc2nc(-c3ccccc3)nc3ccccc23)s1`, for which the melting point is 215 to 216 °C.

For the molecule `CCNC(=O)c1[nH]c2ccc(Cl)cc2c1S(=O)(=O)c1ccccc1`, the melting point was 259 to 260 °C.

Consider `NC(=O)c1ccc(F)c(F)c1Cl`, for which the melting point is 142 to 143 °C.

`COCCCn1c2ccc(O)cc2c2c3c(c(-c4ccccc4Cl)cc21)C(=O)NC3=O` returned a melting point of 260 to 262 °C.

As for `Fc1ccc(-c2cccs2)cc1`, the melting point lay within 51 to 52 °C.

With `CC(=O)Nc1nc2c(sc(=O)n2C2OC(COC(C)=O)C(OC(C)=O)C2OC(C)=O)c(=O)[nH]1` (centres undefined), the melting point lay in the range of 247 to 248 °C.

`COc1ccc(-c2ccncc2)cc1` displayed a melting point of 94 to 96 °C.

`Cc1cc(O)nc(N(C)C#N)n1` registered a melting point of 290 °C.

`CCc1noc(C)c1-c1[nH]c2ccccc2c1C(=O)CCC(=O)N(C)C` gave a melting point of 144 to 148 °C.

Regarding `O=C(O)c1ccc(F)cc1Sc1ccccc1`, the melting point was 193 to 200 °C.

Turning to `Fc1ccc(Nc2nc3ccccc3o2)cc1C(F)(F)F`, the melting point was in the range of 190 to 191 °C.

As to `CCc1nnc(CCCOc2c(C)cc(-c3noc(C(F)F)n3)cc2C)s1`, the melting point is 83 to 84 °C.

For `Cc1ccc2sc(C(=O)O)cc(=O)c2c1`, the melting point was 236 to 237 °C.

On to `CC(C)(C)c1ccc(SC(CCl)S(=O)(=O)c2ccc(Cl)cc2)cc1` (centres undefined), for which the melting point is 52 to 68 °C.

In the case of `COC(=O)C(C)n1nnc2ccc(OCc3ccccc3)cc21` (centres undefined), the melting point fell in the range of 88 to 91.5 °C.

In turn, `CS(=O)(=O)C(C(=O)OCc1ccccc1)(C(=O)OCc1ccccc1)N1C(=O)C(NC(=O)Cc2ccccc2)C1CN=[N+]=[N-]` (centres undefined) came in with a melting point of 114 to 115 °C.

The molecule `O=C(O)c1cnc(N2CCC(NS(=O)(=O)c3ccc4ccccc4c3)CC2)nc1` came in with a melting point of more than 260 °C.

Turning to `Cc1cc(F)ccc1NC(=O)CCC#Cc1ccccn1`, the melting point lay in the range of 110 to 114 °C.

Regarding `O=C(NC1CNCCn2c1nc(-c1ccncn1)cc2=O)c1ccccn1` (racemic), the melting point was in the range of 256 to 258 °C.

The molecule `CCOC(=O)N1CCN(C2=Nc3cc(Br)ccc3N3CCc4cccc2c43)CC1` displayed a melting point of 128 to 131 °C.

`CN(C)CCNc1ccnc2cc3c(cc12)OCO3` registered a melting point of 193 to 194 °C.

`CCOCc1nc2c(N)nc3cc(-c4cccc(C(=O)N5CCOCC5)c4)cnc3c2n1CC(C)C` came in with a melting point of 185 to 187 °C.

`O=[N+]([O-])c1cc(Cl)cc(CO)c1` came in with a melting point of 74 to 75 °C.

`CCCCNc1c(C(=O)OCC)cnc(O)c1C(C)=O` showed a melting point of 134 to 136 °C.

`Cc1cccc2c1nc(COc1ccc(Cl)cc1)n2CCC(C)C(=O)NCCCN1CCCCC1` (centres undefined) yielded a melting point of 102 to 103 °C.

On to `CCc1ccc(-c2ccc3c(c2)C=C(C(=O)O)CCS3(=O)=O)cc1`, for which the melting point fell in the range of 260 to 265 °C.

For the molecule `N#Cc1nc(-c2ccccc2)c[nH]1`, the melting point was in the range of 151 to 153 °C.

In turn, `COc1ccccc1C(Cn1ccnc1)S(=O)c1ccc(C(=O)O)cc1` (centres undefined) had a melting point of 157 to 159 °C.

`COc1nc(NC(=O)NS(=O)(=O)Oc2ccccc2-c2ccon2)nc(OC)n1` yielded a melting point of 166 to 168 °C.

Regarding `CS(=O)(=O)CC(=O)N[C@H]1CC[C@H](CCN2CCN(c3nccc4c3CCO4)CC2)CC1`, the melting point is 260 °C.

`NS(=O)(=O)c1ccc(NC(=O)C(=O)N2CCC(Cc3ccc(F)cc3)CC2)cc1` returned a melting point of 201 to 203 °C.

Molecule `O=[N+]([O-])c1cc(S(=O)c2ccccc2)ccc1Cl` (centres undefined) registered a melting point of 86 to 87 °C.

`O=C(O)COc1cccc2c1CCc1sc(OCCC(c3ccccc3)c3ccccc3)nc1-2` showed a melting point of 165 to 166 °C.

For `CCCCNc1cc(C)nc2cn[nH]c12`, the melting point fell in the range of 160 to 170 °C.

On to `O=C(c1ccc(Cl)cc1)N(c1ccccc1)c1ccc(O)cc1`, for which the melting point is 224 to 225 °C.

`CCOC(=O)C(=Cc1c[nH]c2cc(C)ccc12)NC(C)=O` returned a melting point of 159 to 162 °C.

Molecule `CC(NC(=O)c1cc(Cl)cc(Br)c1N)C1CC1` (centres undefined) returned a melting point of 177 °C.

In the case of `COc1cncc(-c2ccc(OC3SCC(OC(C)=O)C(OC(C)=O)C3OC(C)=O)cn2)c1` (centres undefined), the melting point is 155 °C.

Turning to `O=C(NCc1ccc(Cl)cc1)c1cn2c(CCO)cc3cc(CC4CCOCC4)cc(c1=O)c32`, the melting point lay in the range of 204 to 206 °C.

Regarding `CC(=O)NC1=NN(c2ccccc2)CC1C` (centres undefined), the melting point was in the range of 149 to 150 °C.

As for `O[C@@H](COc1cccc(-c2noc3ccsc23)c1)CN1CCN(c2ccccc2F)CC1`, the melting point is 96 to 99 °C.

With `CCOc1nc(=O)n(C(=O)NC(Cl)=C(Cl)Cl)s1`, the melting point came to 123 °C.

In turn, `CC(C)(C(C#N)=NO)S(C)(=O)=O` came in with a melting point of 139 to 141 °C.

Molecule `CCN(CC)CC(=O)N1CCn2c(c(-c3ccccc3)c3cc(Cl)ccc32)C1` displayed a melting point of 117 to 119 °C.

On to `Cn1ncnc1COc1nn2c(-c3ccccc3F)nncc2c1-c1ccccc1F`, for which the melting point is 169 °C.

Consider `Cc1nccc(C(=O)O)c1-c1nc(-c2ccc(Cl)cc2)cs1`, for which the melting point fell in the range of 92 to 94 °C.

`CC12CCC3c4ccc(OCc5ccccc5)c([N+](=O)[O-])c4CCC3C1CCC2=O` (centres undefined) displayed a melting point of 198 to 199 °C.

Take `Cc1nc(O)c(C#N)c(C)c1Br`: the melting point was in the range of 254 to 262 °C.

`O=C1NC(=O)C(S(=O)(=O)c2ccc(F)cc2)S1` (centres undefined) gave a melting point of 190 to 196 °C.

Turning to `CCCCOc1ccc2cc(Nc3ccc(O)cc3)ccc2c1`, the melting point is 138 to 139 °C.

Molecule `CCc1cc(C)cc(CC)c1CO` had a melting point of 71 to 72 °C.

As to `CN1CS(=Nc2ccc3[nH]nnc3c2)c2ccccc21` (centres undefined), the melting point was 240 °C.

In turn, `CC1(C)OCC(Cn2c(=O)sc3c(=O)[nH]c(N)nc32)O1` (centres undefined) had a melting point of 222 to 225 °C.

Take `COc1cc2nc(N3CCN(c4ccc(O)nn4)CC3)nc(N)c2cc1OC`: the melting point fell in the range of 296 to 297 °C.

As to `O=C(O)CCC(Cc1ccc(Cl)c(Cl)c1)(C(=O)C=Cc1ccc(Cl)cc1)c1ccccc1` (centres undefined), the melting point lay in the range of 155 to 156 °C.

Take `CC(C)(C)c1cccc(S(=O)(=O)n2c(C(O)c3ccc(C(=O)O)cc3)cc3cc(C(F)(F)F)ccc32)c1` (racemic): the melting point is 110 °C.

Turning to `COc1ccc(CCN(C)CCCC(C)(C(=O)OC(C)C)c2ccc(OC)c(OC)c2)cc1OC` (centres undefined), the melting point lay in the range of 85 to 87 °C.

On to `O=CN(CCOc1ccc2ccccc2c1)c1ccc(C(=O)C(=O)O)cc1`, for which the melting point is 155 to 156 °C.

Turning to `O=C(Nc1ccc(N2CCC(NC[C@H](O)COc3cccc4[nH]c(=O)[nH]c34)CC2)cc1)c1ccc2c(c1)OCO2`, the melting point was in the range of 160 to 169 °C.

On to `O=C(O)C(S)c1ccc(Cl)cc1` (centres undefined), for which the melting point fell in the range of 123 to 125 °C.

The molecule `COC(=O)[C@H](Cc1ccc(OCCN2CCCCCC2)cc1)NC(=O)[C@@H]1CCCN1S(=O)(=O)c1ccc(C)cc1` returned a melting point of 60 to 65 °C.

Molecule `O=C(O)Cc1nc(-c2ccc(Cl)cc2)oc1-c1ccoc1` registered a melting point of 218 to 219 °C.

For `Cc1cc(-n2c(C)nc3ccccc32)ccc1[N+](=O)[O-]`, the melting point lay in the range of 144 to 146 °C.

Turning to `CCN(CC)C(=CC(=O)OC)N1C(=O)C(=[N+]=[N-])c2ccccc21`, the melting point was 175 to 177 °C.

`CCC(C)OC(=O)SN(C(=O)N1CC2(C(=O)OC)CCc3ccccc3C2=N1)c1ccc(C(F)(F)F)cc1` (centres undefined) showed a melting point of 125 to 126 °C.

Turning to `Cc1ccc(C(=S)Oc2ccc(C(=O)O)cc2)cc1C12CC3CC(CC(C3)C1)C2`, the melting point fell in the range of 276 to 277 °C.

In the case of `N#CCC(=O)N(N)c1c(Cl)cc(Cl)cc1Cl`, the melting point lay in the range of 166 to 168 °C.

`CC(=O)c1cc2c(s1)CCCc1cc(=O)n(-c3ccc(Cl)cc3)nc1-2` showed a melting point of 164 to 166 °C.

In turn, `O=C(Nc1ccc(Oc2ccccc2)cc1)N1CCN(c2ncnc3cc(F)c(F)cc23)CC1` returned a melting point of 177 to 178 °C.

Turning to `O=C(NC(=Cc1ccccc1)c1ccccc1)C(F)(F)F`, the melting point was 148 to 150 °C.

On to `CC1SC(=O)NN=C1c1ccc2c(c1)C(C)(C)C(=O)N2C(=O)c1cccnc1` (centres undefined), for which the melting point came out at 245 °C.

For `CCCCCCCCCCCCCCCCCCNC(=O)C(=O)NCCc1ccc(O)cc1`, the melting point is 167 °C.

In turn, `Cc1ccc([C@H](CC(=O)O)NC(=O)Nc2c(N)cc(C)n(Cc3ccccc3Cl)c2=O)cc1` showed a melting point of 145 to 147 °C.

Regarding `CC(C)Cn1c(CC(C)O)nc2c(N)nc3ccccc3c21` (centres undefined), the melting point fell in the range of 196 to 198 °C.

On to `COc1cc2c(cc1O)C(Cc1cc(Br)c(OC)cc1[N+](=O)[O-])N(C)CC2` (centres undefined), for which the melting point stood at 146 °C.

As to `CCCCOc1ccc(S(=O)(=O)C2(C(=O)NO)CCN(Cc3ccccc3)CC2)cc1`, the melting point was determined as 144 °C.

Consider `CCCn1c(N)c(N=Cc2ccc(OCC(=O)O)cc2)c(=O)n(CCC)c1=O`, for which the melting point lay in the range of 179 to 180 °C.

The melting point is the temperature of the solid-liquid transition.
